The test system of one test is NCI-H358 (K-Ras G12C). Nature of the test: CellTiter-Glo cell viability assay, NCI-H358. The class given is cell-based, human. Conditions: 5-day treatment, read-out: H358 Cell Viability assay data (K-Ras G12C, IC50). Summed up:
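Five-day compound treatment of NCI-H358 cells, then CellTiter-Glo luminescence, percent of DMSO, four-parameter logistic fit.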
(Cellular ATP, detected with luciferase, serves as a proxy for viable cell number.)

Test [1] relates to K-Ras G12C (NCI-H358 cells). Description: Potency assay: pERK in NCI-H358 cells. The class given is cell-based, human. Particulars: NCI-H358 cells, 4 hours, read-out: pERK EC50 (H358 KRAS G12C). The procedure, abridged:
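Cells plated the day before were exposed for 4 h at 37° C, 5% CO2 to a 10-point, 3-fold DMSO dilution series (10 mM top stock), in duplicate. Phospho-ERK was read by AlphaLISA SureFire Ultra or by In-Cell Western with DRAQ5 DNA stain, and IC50 came from a 4-parameter sigmoidal fit.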

In general, IC50 refers to the midpoint of a concentration-inhibition curve. As usually defined, the EC50 is the concentration that produces a half-maximal response.

Where two headings read alike, the source gives them in different places.

As for `CCn1c(-c2cccnc2[C@H](C)OC)c2c3cc(ccc31)-c1cc(O)cc(c1)C[C@H](NC(=O)[C@H](C(C)C)N(C)C(=O)[C@H]1CCN(C(C)=O)C1)C(=O)N1CCC[C@H](N1)C(=O)OCC(C)(C)C2` [Compound A5], the IC50 in the test with NCI-H358 (K-Ras G12C) (Homo sapiens, NCI-H358, 120 h) lay within 10 to 100 nM. In addition, the EC50 in test [1] (Homo sapiens) was under 5000 nM.
In the case of `CCn1c(-c2cccnc2[C@H](C)OC)c2c3cc(ccc31)-c1csc(n1)C[C@H](NC(=O)[C@H](C(C)C)N(C)C(=O)[C@H]1CCN(C(=O)CN(C)C)C1)C(=O)N1CCC[C@H](N1)C(=O)OCC(C)(C)C2` [Compound A97], the IC50 in the test on NCI-H358 (K-Ras G12C) (Homo sapiens, NCI-H358, 120 h) lay within 10 to 100 nM. The concentration giving a half-maximal response (EC50) in test [1] (Homo sapiens) is under 5000 nM.
On to `CCn1c(-c2cccnc2[C@H](C)OC)c2c3cc(ccc31)-c1cccc(c1)C[C@H](NC(=O)[C@H](C(C)C)N(C)C(=O)[C@H]1CCNC1)C(=O)N1CCC[C@H](N1)C(=O)OCC(C)(C)C2` [Compound A119], for which, in test [1] (Homo sapiens), the EC50 is under 5000 nM.
With `CCn1c(-c2cccnc2[C@H](C)OC)c2c3cc(ccc31)-c1cc(O)cc(c1)C[C@H](NC(=O)C(=C(C)C)N(C)C(C)=O)C(=O)N1CCC[C@H](N1)C(=O)OCC(C)(C)C2` [Compound A142], in the test with NCI-H358 (K-Ras G12C) (Homo sapiens, NCI-H358, 120 h), the IC50 lay within 100 to 1000 nM. Moreover, the EC50 in test [1] (Homo sapiens) was under 5000 nM.
The matching figures for `CCn1c(-c2cccnc2[C@H](C)OC)c2c3cc(ccc31)-c1cc(cc3nc[nH]c13)C[C@H](NC(=O)[C@H](C(C)C)N(C)C(C)=O)C(=O)N1CCC[C@H](N1)C(=O)OCC(C)(C)C2` [Compound A153]: 100 to 1000 nM and under 5000 nM.
The matching figures for `CCn1c(-c2cccnc2[C@H](C)OC)c2c3cc(ccc31)-c1cc(cc(S(C)(=O)=O)c1)C[C@H](NC(=O)[C@H](C(C)C)N(C)C(C)=O)C(=O)N1CCC[C@H](N1)C(=O)OCC(C)(C)C2` [Compound A154]: 10 to 100 nM and under 5000 nM.
As to `CCn1c(-c2cccnc2[C@H](C)OC)c2c3cc(ccc31)-c1cc(O)cc(c1)C[C@H](NC(=O)[C@H](C(C)C)N(C)C(=O)[C@H]1CCN(C3CC3)C1)C(=O)N1CCC[C@H](N1)C(=O)OCC(C)(C)C2` [Compound A175], the IC50 in the test with NCI-H358 (K-Ras G12C) (Homo sapiens, NCI-H358, 120 h) was under 10 nM. In addition, the EC50 in test [1] (Homo sapiens) is under 5000 nM.
Turning to `CCn1c(-c2cccnc2[C@H](C)OC)c2c3cc(ccc31)-c1csc(n1)C[C@H](NC(=O)[C@H](C(C)C)N(C)C(=O)C1COC1)C(=O)N1CCC[C@H](N1)C(=O)OCC(C)(C)C2` [Compound A245], the IC50 in the test with NCI-H358 (K-Ras G12C) (Homo sapiens, NCI-H358, 120 h) was under 10 nM. Besides, the EC50 in test [1] (Homo sapiens) was under 5000 nM.
The like results for `CCn1c(-c2cccnc2[C@H](C)OC)c2c3cc(ccc31)-c1cccc(c1)C[C@H](NC(=O)[C@H](C(C)C)N(C)C(=O)C1COC1)C(=O)N1CCC[C@H](N1)C(=O)OCC(C)(C)C2` [Compound A246] were, in that order, under 10 nM and under 5000 nM.
The like results for `CCn1c(-c2cccnc2[C@H](C)OC)c2c3cc(ccc31)-c1cc(O)cc(c1)C[C@H](NC(=O)[C@H](C(C)C)N(C)C(=O)C1CC(=O)N(C3CC3)C1)C(=O)N1CCC[C@H](N1)C(=O)OCC(C)(C)C2` (some centres unmarked) [Compound A252] were, in that order, 10 to 100 nM and under 5000 nM.
The matching figures for `CCn1c(-c2cnccc2COC)c2c3cc(ccc31)-c1cc(O)cc(c1)C[C@H](NC(=O)[C@H](C(C)C)N(C)C(=O)N1CCNCC1)C(=O)N1CCC[C@H](N1)C(=O)OCC(C)(C)C2` [Compound A255]: under 10 nM and under 5000 nM.
Take `CCn1c(-c2cccnc2[C@H](C)OC)c2c3cc(ccc31)-c1cc(O)cc(c1)C[C@H](NC(=O)[C@@H](C(C)C)N(C)C(C)=O)C(=O)N1CCC[C@H](N1)C(=O)OCC(C)(C)C2` [Compound A256]: in test [1] (Homo sapiens), the concentration giving a half-maximal response (EC50) is under 5000 nM.
`CCn1c(-c2cccnc2[C@H](C)OC)c2c3cc(ccc31)-c1csc(n1)C[C@H](NC(=O)[C@H](C(C)C)N(C)C(=O)N1C[C@@H](C)N(C)C[C@@H]1C)C(=O)N1CCC[C@H](N1)C(=O)OCC(C)(C)C2` [Compound A292]: in the test with NCI-H358 (K-Ras G12C) (Homo sapiens, NCI-H358, 120 h), the IC50 is under 10 nM. Besides, the half-maximal effective concentration (EC50) in test [1] (Homo sapiens) is under 5000 nM.
The like results for `CCn1c(-c2cccnc2[C@H](C)OC)c2c3cc(ccc31)-c1csc(n1)C[C@H](NC(=O)[C@H](C(C)C)N(C)C(=O)N1CC(N3CCC3)C1)C(=O)N1CCC[C@H](N1)C(=O)OCC(C)(C)C2` [Compound A295] were, in that order, under 10 nM and under 5000 nM.
Consider `CCn1c(-c2cccnc2[C@H](C)OC)c2c3cc(ccc31)-c1csc(n1)C[C@H](NC(=O)[C@H](C(C)C)N(C)C(=O)N1C[C@H](C)N(C)C[C@H]1C)C(=O)N1CCC[C@H](N1)C(=O)OCC(C)(C)C2` [Compound A300], for which, in test [1] (Homo sapiens), the EC50 was under 5000 nM.
As to `CCn1c(-c2cccnc2[C@H](C)OC)c2c3cc(ccc31)-c1csc(n1)C[C@H](NC(=O)[C@H](C(C)C)N1CCCN(C)C1=O)C(=O)N1CCC[C@H](N1)C(=O)OCC(C)(C)C2` [Compound A317], the IC50 in the test with NCI-H358 (K-Ras G12C) (Homo sapiens, NCI-H358, 120 h) was under 10 nM. The half-maximal effective concentration (EC50) in test [1] (Homo sapiens) was under 5000 nM.
The matching figures for `CCn1c(-c2cccnc2[C@H](C)OC)c2c3cc(ccc31)-c1csc(n1)C[C@H](NC(=O)[C@H](C(C)C)N(C)C(=O)N1CC(N3CCOCC3)C1)C(=O)N1CCC[C@H](N1)C(=O)OCC(C)(C)C2` [Compound A338]: 10 to 100 nM and under 5000 nM.
The like results for `CCN(CC)C(=O)N(C)[C@H](C(=O)N[C@H]1Cc2nc(cs2)-c2ccc3c(c2)c(c(-c2cccnc2[C@H](C)OC)n3CC)CC(C)(C)COC(=O)[C@@H]2CCCN(N2)C1=O)C(C)C` [Compound A351] were, in that order, under 10 nM and under 5000 nM.
In the case of `CCn1c(-c2cccnc2[C@H](C)OC)c2c3cc(ccc31)-c1cc(O)cc(c1)C[C@H](NC(=O)[C@H](C(C)C)N(C)C(=O)[C@H]1CCN(C(=O)[C@@H](C)N(C)C)C1)C(=O)N1CCC[C@H](N1)C(=O)OCC(C)(C)C2` [Compound A386], in test [1] (Homo sapiens), the EC50 was under 5000 nM.
In the case of `CCn1c(-c2cc(N3CCN(C)CC3)cnc2[C@H](C)OC)c2c3cc(ccc31)-c1nc(co1)C[C@H](NC(=O)[C@H]1[C@H](C)[C@@H]1C)C(=O)N1CCC[C@H](N1)C(=O)OCC(C)(C)C2` [Compound A391, (1r,2R,3S)—N-((6^3S,4S,Z)-1^1-ethyl-1^2-(2-((S)-1-methoxyethyl)-5-(4-methylpiperazin-1-yl)pyridin-3-yl)-10,10-dimethyl-5,7-dioxo-6^1,6^2,6^3,6^4,6^5,6^6-hexahydro-1^1H-8-oxa-2 (2,4)-oxazola-1 (5,3)-indola-6 (1,3)-pyridazinacycloundecaphane-4-yl)-2,3-dimethylcyclopropane-1-carboxamide], in the test with NCI-H358 (K-Ras G12C), the IC50 was under 10 nM. The EC50 in test [1] was under 5000 nM.
`CCn1c(-c2cccnc2[C@H](C)OC)c2c3cc(ccc31)-c1cc(O)cc(c1)C[C@H](NC(=O)[C@H](C(C)C)N(C)C(=O)[C@@H]1CCCC[C@@H]1N)C(=O)N1CCC[C@H](N1)C(=O)OCC(C)(C)C2` [Compound A395]: in the test on NCI-H358 (K-Ras G12C) (Homo sapiens, NCI-H358, 120 h), the IC50 is under 10 nM. In addition, in test [1] (Homo sapiens), the EC50 is under 5000 nM.
The matching figures for `CCn1c(-c2cccnc2[C@H](C)OC)c2c3cc(ccc31)-c1csc(n1)C[C@H](NC(=O)[C@H](C(C)C)N(C)C(=O)N1CCOC[C@@H]1C)C(=O)N1CCC[C@H](N1)C(=O)OCC(C)(C)C2` [Compound A403]: under 10 nM and under 5000 nM.
`CCn1c(-c2cccnc2[C@H](C)OC)c2c3cc(ccc31)-c1cc(O)cc(c1)C[C@H](NC(=O)[C@H](C(C)C)N(C)C(=O)C1CN3CCCN1CC3)C(=O)N1CCC[C@H](N1)C(=O)OCC(C)(C)C2` (some centres unmarked) [Compound A404]: the IC50 in the test with NCI-H358 (K-Ras G12C) (Homo sapiens, NCI-H358, 120 h) is 10 to 100 nM. Further, the EC50 in test [1] (Homo sapiens) is under 5000 nM.
Take `CCn1c(-c2cccnc2[C@H](C)OC)c2c3cc(ccc31)-c1cc(O)cc(c1)C[C@H](NC(=O)[C@H](C(C)C)N(C)C(=O)C13CCC(CO1)C3)C(=O)N1CCC[C@H](N1)C(=O)OCC(C)(C)C2` [Compound A411]: the IC50 with NCI-H358 (K-Ras G12C) (Homo sapiens, NCI-H358, 120 h) was under 10 nM. For the same molecule, the EC50 in test [1] (Homo sapiens) is under 5000 nM.
The matching figures for `CCn1c(-c2cccnc2[C@H](C)OC)c2c3cc(ccc31)-c1cc(O)cc(c1)C[C@H](NC(=O)[C@H](C(C)C)N(C)C(=O)[C@@H]1[C@H]3CC[C@H](C3)[C@@H]1N)C(=O)N1CCC[C@H](N1)C(=O)OCC(C)(C)C2` [Compound A417]: 10 to 100 nM and under 5000 nM.
The matching figures for `CCn1c(-c2cccnc2[C@H](C)OC)c2c3cc(ccc31)-c1cc(O)cc(c1)C[C@H](NC(=O)[C@H](C(C)C)N(C)C(=O)[C@H]1OCC[C@H]1c1ccccc1)C(=O)N1CCC[C@H](N1)C(=O)OCC(C)(C)C2` [Compound A425]: under 10 nM and under 5000 nM.
Regarding `CCn1c(-c2cccnc2[C@H](C)OC)c2c3cc(ccc31)-c1cc(O)cc(c1)C[C@H](NC(=O)[C@H](C(C)C)N(C)C(=O)C1CNCCNC1)C(=O)N1CCC[C@H](N1)C(=O)OCC(C)(C)C2` [Compound A432], in the test on NCI-H358 (K-Ras G12C) (Homo sapiens, NCI-H358, 120 h), the IC50 was 10 to 100 nM. The EC50 in test [1] (Homo sapiens) is under 5000 nM.

For the origin of these results see patent US20250195521A1 (Revolution Medicines, Inc., priority 2020, published 2025).
